Our source for the IC50 values is patent US11464770B2, “Anticancer pharmaceutical composition” (NATIONAL CANCER CENTER, priority 2016, dated 2022).

What is called IC50 is the point on the concentration scale where inhibition reaches its midpoint.

The assay has as its system colorectal cancer cell lines (e.g. DLD-1, HCT 116, SW620, HCT-15, HCT-8, RKO). Description: Cell based assay, cell viability (CellTiter-Glo), colorectal cancer cell lines. The procedure: Commercially available bladder cancer, prostate cancer, lung cancer, breast cancer, blood cancer, pancreatic cancer, colorectal cancer, brain cancer, neuroblastoma, melanoma, liver cancer, cervical carcinoma, ovarian cancer, renal cancer, and papilloma cell lines were each treated with trypsin-EDTA and cultured, followed by being seeded in each well of a 96 well plate. After 24 hours of treatment at constant temperature, the respective cells were treated with the candidate compound so that a final concentration became 0 to 2 μM. The treated cells were additionally cultured for 72 hours, and cell viability was measured by using an ATP detection method (CellTiter-Glo® Luminescent Cell Viability Assay, Promega).
In general terms: ATP-based viability assays read luminescence as a measure of living cells.

The mark [1] stands for this setting: Homo sapiens, DLD-1, 72 hours treatment, read-out: IC50, colorectal cancer cell line DLD-1.
Where [2] appears, read: Homo sapiens, HCT 116, 72 hours treatment, read-out: IC50, colorectal cancer cell line HCT 116.
Where [3] appears, read: Homo sapiens, HCT-8, 72 hours treatment, read-out: IC50, colorectal cancer cell line HCT-8.
Where [4] appears, read: Homo sapiens, HCT-15, 72 hours treatment, read-out: IC50, colorectal cancer cell line HCT-15.
Setting [5] is: Homo sapiens, HT-29, 72 hours treatment, read-out: IC50, colorectal cancer cell line HT-29.
Setting [6] is: Homo sapiens, LoVo, 72 hours treatment, read-out: IC50, colorectal cancer cell line LoVo.
Where [7] appears, read: Homo sapiens, SW480, 72 hours treatment, read-out: IC50, colorectal cancer cell line SW480.
Setting [8] is: Homo sapiens, SW-620, SW620, 72 hours treatment, read-out: IC50, colorectal cancer cell line SW620.
[9] abbreviates: RKO, 72 hours treatment, read-out: IC50, colorectal cancer cell line RKO.

Where two headings read alike, the source gives them in different places.

Take `CC(=O)c1c([S+](C)[O-])[nH]c2c(Br)ccc(Cl)c2c1=O` (stereo not drawn) [Compound 1, 3-acetyl-8-bromo-5-chloro-2-(methylsulfinyl)quinolin-4(1H)-one]: the IC50 is 810 nM under setting [1]; 1670 nM under setting [2]; above 2000 nM under setting [3]; above 2000 nM under setting [4]; above 10000 nM under setting [5]; above 2000 nM under setting [6]. Moreover, the half-maximal inhibitory concentration (IC50) by setting is: under setting [7], above 2000 nM; under setting [8], above 2000 nM; under setting [9], above 2000 nM.
As for `CSc1[nH]c2c(Br)ccc(Cl)c2c(=O)c1C(C)=O` [Compound 2, 3-acetyl-8-bromo-5-chloro-2-(methylthio)quinolin-4(1H)-one], the IC50 runs as follows: under setting [1], above 2000 nM; under setting [2], above 2000 nM; under setting [3], above 2000 nM; under setting [4], above 2000 nM; under setting [5], above 10000 nM; under setting [6], above 2000 nM. Further, the IC50 is above 2000 nM under setting [7], above 2000 nM under setting [8] and above 2000 nM under setting [9].
In the case of `CC(=O)c1c(SCc2ccccc2)[nH]c2c(Br)ccc(Cl)c2c1=O` [Compound 3, 3-acetyl-2-(benzylthio)-8-bromo-5-chloroquinolin-4(1H)-one], the 50% inhibitory concentration (IC50) is, setting by setting: under setting [1], above 2000 nM; under setting [2], above 2000 nM; under setting [3], above 2000 nM; under setting [4], above 2000 nM; under setting [5], above 10000 nM; under setting [6], above 2000 nM. The 50% inhibitory concentration (IC50) reads like this: under setting [7], above 2000 nM; under setting [8], above 2000 nM; under setting [9], above 2000 nM.
`CC(=O)c1c([S+]([O-])Cc2ccccc2)nc2c(Br)ccc(Cl)c2c1O` (stereo not drawn) [Compound 4]: the IC50 reads like this: under setting [1], 1840 nM; under setting [2], 1150 nM; under setting [3], 1580 nM; under setting [4], 1330 nM; under setting [5], above 10000 nM; under setting [6], 1800 nM. The IC50 under setting [7] was above 2000 nM, the IC50 under setting [8] is 1330 nM and the half-inhibitory concentration (IC50) under setting [9] came to 1550 nM.
For the compound `CSc1c(C(C)=O)c(=O)c2c(Cl)ccc(Br)c2n1C` [Compound 5, 3-acetyl-8-bromo-5-chloro-1-methyl-2-(methylthio)quinolin-4(1H)-one], the half-inhibitory concentration (IC50) is above 2000 nM under setting [1]; above 2000 nM under setting [2]; above 2000 nM under setting [3]; above 2000 nM under setting [4]; above 10000 nM under setting [5]; above 2000 nM under setting [6]. The IC50 is, setting by setting: under setting [7], above 2000 nM; under setting [8], above 2000 nM; under setting [9], above 2000 nM.
In the case of `CC(=O)c1c([S+](C)[O-])[nH]c2c(Cl)ccc(Cl)c2c1=O` (stereo not drawn) [Compound 6, 3-acetyl-5,8-dichloro-2-(methylsulfinyl)quinolin-4(1H)-one], the IC50 runs as follows: under setting [1], 700 nM; under setting [2], 1480 nM; under setting [3], above 2000 nM; under setting [4], 1700 nM; under setting [5], above 10000 nM; under setting [6], above 2000 nM. The IC50 is, setting by setting: under setting [7], above 2000 nM; under setting [8], 1550 nM; under setting [9], 1840 nM.
Take `CSc1c(C(C)=O)c(=O)c2cc(F)ccc2n1C` [Compound 7, 3-acetyl-6-fluoro-1-methyl-2-(methylthio)quinolin-4(1H)-one]: the concentration for half-maximal inhibition (IC50) is above 2000 nM under setting [1]; above 2000 nM under setting [2]; above 2000 nM under setting [3]; above 2000 nM under setting [4]; above 10000 nM under setting [5]; above 2000 nM under setting [6]. Also, the IC50 by setting is: under setting [7], above 2000 nM; under setting [8], above 2000 nM; under setting [9], above 2000 nM.
For `CSc1[nH]c2ccc(F)cc2c(=O)c1C(C)=O` [Compound 8, 1-(6-fluoro-4-hydroxy-2-(methylthio)quinolin-3-yl)ethan-1-one], the IC50 is above 2000 nM under setting [1]; above 2000 nM under setting [2]; above 2000 nM under setting [3]; above 2000 nM under setting [4]; above 10000 nM under setting [5]; above 2000 nM under setting [6]. In addition, the IC50 is above 2000 nM under setting [7], above 2000 nM under setting [8] and above 2000 nM under setting [9].
For the compound `CC(=O)c1c([S+](C)[O-])n(C(=O)c2ccc(Br)cc2)c2c(Br)ccc(Cl)c2c1=O` (stereo not drawn) [Compound 9, 3-acetyl-8-bromo-1-(4-bromobenzoyl)-5-chloro-2-(methylsulfinyl)quinolin-4(1H)-one], the IC50 reads like this: under setting [1], 870 nM; under setting [2], 1050 nM; under setting [3], 1750 nM; under setting [4], 1240 nM; under setting [5], above 10000 nM; under setting [6], above 2000 nM. Moreover, the half-maximal inhibitory concentration (IC50) runs as follows: under setting [7], 1280 nM; under setting [8], 1360 nM; under setting [9], 1930 nM.
As for `CC(=O)c1c(SCc2ccc(Cl)cc2)[nH]c2c(Br)ccc(Cl)c2c1=O` [Compound 10, 3-acetyl-8-bromo-5-chloro-2-((4-chlorobenzyl)thio)quinolin-4(1H)-one], the concentration for half-maximal inhibition (IC50) runs as follows: under setting [1], above 2000 nM; under setting [2], above 2000 nM; under setting [3], above 2000 nM; under setting [4], above 2000 nM; under setting [5], above 10000 nM; under setting [6], above 2000 nM. The IC50 is, setting by setting: under setting [7], above 2000 nM; under setting [8], above 2000 nM; under setting [9], above 2000 nM.
Turning to `CC(=O)c1c([S+]([O-])Cc2ccc(Cl)cc2)[nH]c2c(Br)ccc(Cl)c2c1=O` (stereo not drawn) [Compound 11, 3-acetyl-8-bromo-5-chloro-2-((4-chlorobenzyl)sulfinyl)quinolin-4(1H)-one], the IC50 by setting is: under setting [1], 820 nM; under setting [2], above 2000 nM; under setting [3], above 2000 nM; under setting [4], above 2000 nM; under setting [5], above 10000 nM; under setting [6], above 2000 nM. Besides, the IC50 under setting [7] was above 2000 nM, the concentration for half-maximal inhibition (IC50) under setting [8] is above 2000 nM and the half-inhibitory concentration (IC50) under setting [9] was above 2000 nM.
For the compound `CC(=O)c1c(Sc2ccccc2)[nH]c2c(Br)ccc(Cl)c2c1=O` [Compound 12, 3-acetyl-8-bromo-5-chloro-2-(phenylthio)quinolin-4(1H)-one], the IC50 is above 2000 nM under setting [1]; above 2000 nM under setting [2]; above 2000 nM under setting [3]; above 2000 nM under setting [4]; above 10000 nM under setting [5]; above 2000 nM under setting [6]. In addition, the IC50 reads like this: under setting [7], above 2000 nM; under setting [8], above 2000 nM; under setting [9], above 2000 nM.
`CC(=O)c1c([S+]([O-])c2ccccc2)[nH]c2c(Br)ccc(Cl)c2c1=O` (stereo not drawn) [Compound 13, 3-acetyl-8-bromo-5-chloro-2-(phenylsulfinyl)quinolin-4(1H)-one]: the IC50 is above 2000 nM under setting [1]; above 2000 nM under setting [2]; above 2000 nM under setting [3]; above 2000 nM under setting [4]; above 10000 nM under setting [5]; above 2000 nM under setting [6]. The half-maximal inhibitory concentration (IC50) under setting [7] is above 2000 nM, the IC50 under setting [8] is above 2000 nM and the 50% inhibitory concentration (IC50) under setting [9] is above 2000 nM.
In the case of `COc1ccccc1Sc1[nH]c2c(Br)ccc(Cl)c2c(=O)c1C(C)=O` [Compound 14, 3-acetyl-8-bromo-5-chloro-2-((2-methoxyphenyl)thio)quinolin-4(1H)-one], the IC50 under setting [1] was above 2000 nM; the concentration for half-maximal inhibition (IC50) under setting [2] is above 2000 nM; the IC50 under setting [3] is above 2000 nM; the IC50 under setting [4] was above 2000 nM; the 50% inhibitory concentration (IC50) under setting [5] was above 10000 nM; the IC50 under setting [6] was above 2000 nM. Besides, the half-inhibitory concentration (IC50) was above 2000 nM under setting [7], above 2000 nM under setting [8] and above 2000 nM under setting [9].
Consider `COc1ccccc1[S+]([O-])c1[nH]c2c(Br)ccc(Cl)c2c(=O)c1C(C)=O` (stereo not drawn) [Compound 15, 3-acetyl-8-bromo-5-chloro-2-((2-methoxyphenyl)sulfinyl)quinolin-4(1H)-one], for which the concentration for half-maximal inhibition (IC50) by setting is: under setting [1], above 2000 nM; under setting [2], above 2000 nM; under setting [3], above 2000 nM; under setting [4], above 2000 nM; under setting [5], above 10000 nM; under setting [6], above 2000 nM. Further, the 50% inhibitory concentration (IC50) under setting [7] was above 2000 nM, the IC50 under setting [8] is above 2000 nM and the IC50 under setting [9] was above 2000 nM.
Consider `CC(=O)c1c(Sc2ccc(Br)cc2)[nH]c2c(Br)ccc(Cl)c2c1=O` [Compound 16, 3-acetyl-8-bromo-2-((4-bromophenyl)thio)-5-chloroquinolin-4(1H)-one], for which the IC50 was above 2000 nM under setting [1]; above 2000 nM under setting [2]; above 2000 nM under setting [3]; above 2000 nM under setting [4]; above 10000 nM under setting [5]; above 2000 nM under setting [6]. Moreover, the concentration for half-maximal inhibition (IC50) runs as follows: under setting [7], above 2000 nM; under setting [8], above 2000 nM; under setting [9], above 2000 nM.
With `CC(=O)c1c([S+]([O-])c2ccc(Br)cc2)[nH]c2c(Br)ccc(Cl)c2c1=O` (stereo not drawn) [Compound 17, 3-acetyl-8-bromo-2-((4-bromophenyl)sulfinyl)-5-chloroquinolin-4(1H)-one], the IC50 was above 2000 nM under setting [1]; above 2000 nM under setting [2]; above 2000 nM under setting [3]; above 2000 nM under setting [4]; above 10000 nM under setting [5]; above 2000 nM under setting [6]. Besides, the IC50 by setting is: under setting [7], above 2000 nM; under setting [8], above 2000 nM; under setting [9], above 2000 nM.
As for `CSc1c(C(C)=O)c(=O)c2c(Cl)ccc(Br)c2n1C(C)=O` [Compound 18, 1,1′-(8-bromo-5-chloro-2-(methylthio)-4-oxoquinoline-1,3(4H)-diyl)bis(ethan-1-one)], the 50% inhibitory concentration (IC50) under setting [1] is above 2000 nM; the half-maximal inhibitory concentration (IC50) under setting [2] is above 2000 nM; the IC50 under setting [3] is above 2000 nM; the IC50 under setting [4] is above 2000 nM; the IC50 under setting [5] was above 10000 nM; the 50% inhibitory concentration (IC50) under setting [6] is above 2000 nM. Also, the IC50 runs as follows: under setting [7], above 2000 nM; under setting [8], above 2000 nM; under setting [9], above 2000 nM.
Regarding `CC(=O)c1c([S+](C)[O-])n(C(C)=O)c2c(Br)ccc(Cl)c2c1=O` (stereo not drawn) [Compound 19, 1,1′-(8-bromo-5-chloro-2-(methylsulfinyl)-4-oxoquinoline-1,3(4H)-diyl)bis(ethan-1-one)], the half-inhibitory concentration (IC50) is, setting by setting: under setting [1], above 2000 nM; under setting [2], above 2000 nM; under setting [3], above 2000 nM; under setting [4], above 2000 nM; under setting [5], above 10000 nM; under setting [6], above 2000 nM. In addition, the IC50 is, setting by setting: under setting [7], above 2000 nM; under setting [8], above 2000 nM; under setting [9], above 2000 nM.
As to `CC(=O)c1c([S+]([O-])Cc2ccccc2)n(C(=O)c2ccc(Br)cc2)c2c(Br)ccc(Cl)c2c1=O` (stereo not drawn) [Compound 20, 3-acetyl-2-(benzylsulfinyl)-8-bromo-1-(4-bromobenzoyl)-5-chloroquinolin-4(1H)-one], the concentration for half-maximal inhibition (IC50) was above 2000 nM under setting [1]; above 2000 nM under setting [2]; above 2000 nM under setting [3]; above 2000 nM under setting [4]; above 10000 nM under setting [5]; above 2000 nM under setting [6]. Also, the IC50 under setting [7] was above 2000 nM, the IC50 under setting [8] was above 2000 nM and the IC50 under setting [9] is above 2000 nM.
